Assay results from patent US20060084688A1, “Aromatic sulfone hydroxamic acid metalloprotease inhibitor” (priority 1997, published 2006).
Where a name gives a salt, the structure may show the parent alone.

Conditions: Rat Intraveneous, 20 mpk
In the case of `Cl.O=C(NO)C1(S(=O)(=O)c2ccc(Sc3ccccc3)cc2)CCN(C2CC2)CC1` [Example 32, 1-cyclopropyl-N-hydroxy-4-[[4-(phenylthio)phenyl]sulfonyl]-4-piperidine carboxamide, monohydrochloride], the t1/2 is reported as 1.03 h.
Work on `CN1CCC(C(=O)NO)(S(=O)(=O)c2ccc(Sc3ccccc3)cc2)CC1.Cl` [Example 33, N-hydroxy-1-methyl-4-[[4-(phenylthio)phenyl]sulfonyl]-4-piperidinecarboxamide, monohydrochloride] yielded a t1/2 of 1.91 h.
Work on `CC(=O)N1CCC(C(=O)NO)(S(=O)(=O)c2ccc(Sc3ccccc3)cc2)CC1.Cl` [Example 36, 1-acetyl-N-hydroxy-4-[[4-(phenylthio)phenyl]sulfonyl]-4-piperidinecarboxamide, monohydrochloride] yielded a t1/2 of 0.65 h.
With `C#CCN1CCC(C(=O)NO)(S(=O)(=O)c2ccc(Oc3ccc(C)c(C)c3)cc2)CC1.Cl` [Example 43, 4-[[4-(3,4-Dimethylphenoxyl)phenyl]sulfonyl]-N-hydroxy-1-(2-propynyl)-4-piperidinecarboxamide, monhydrochloride] the t1/2 was 0.82 h.
In the case of `Cl.O=C(NO)C1(S(=O)(=O)c2ccc(Oc3ccc(-n4cncn4)cc3)cc2)CCS(=O)(=O)CC1` [Example 53, Tetrahydro-N-hydroxy-4-[[4-[4-(1H-1,2,4-triazol-1-yl)phenoxy]-phenyl]-sulfonyl]-2H-thiopyran-4-carboxamide 1,1-dioxide, monohydrochloride], the t1/2 is reported as 0.97 h.
Molecule `C#CCN1CCC(C(=O)NO)(S(=O)(=O)c2ccc(Oc3ccc(Cl)c(C)c3)cc2)CC1.Cl` [Example 81, 4-[(4-(4-chloro-3-methylphenoxy)phenyl]sulfonyl]-N-hydroxy-1-(2-propynyl)-4-piperidinecarboxamide, monohydrochloride] has a t1/2 of 0.76 h.
For `Cl.O=C(NO)C1(S(=O)(=O)c2ccc(Oc3ccc(Cl)cc3)cc2)CCNCC1` [Example 93, 4-[[4-(4-chlorophenoxy)-phenyl]sulfonyl]-N-hydroxy-4-piperidinecarboxamide, monohydrochloride], the t1/2 was 1.81 h.
`O=C(NO)C1(S(=O)(=O)c2ccc(Oc3ccccc3)cc2)CCOCC1` [Example 94, Tetrahydro-N-hydroxy-4-[(4-phenoxyphenyl)sulfonyl]-2H-pyran-4-carboxamide] showed a t1/2 of 1.71 h.
With `Cl.O=C(NO)C1(S(=O)(=O)c2ccc(Oc3ccc(-n4ccnc4)cc3)cc2)CCOCC1` [Example 99, tetrahydro-N-hydroxy-4-[[4-[4-(1H-imidazol-1-yl)phenoxy]phenyl]-sulfonyl]-2H-pyran-4-carboxamide, monohydrochloride] the t1/2 was 0.68 h.
`O=C(NO)C1(S(=O)(=O)c2ccc(Oc3ccc(Cl)cc3)cc2)CCOCC1` [Example 100, 4-[[4-(4-chlorophenoxy)-phenyl]sulfonyl]-tetrahydro-N-hydroxy-2H-pyran-4-carboxamide] showed a t1/2 of 1.50 h.
Work on `O=C(NO)C1(S(=O)(=O)c2ccc(Sc3ccc(F)cc3)cc2)CCOCC1` [Example 103, 4-[[4-[(4-fluorophenyl)-thio]phenyl]sulfonyl]tetrahydro-N-hydroxy-2H-pyran-4-carboxamide] yielded a t1/2 of 1.10 h.
Work on `Cl.O=C(NO)C1(S(=O)(=O)c2ccc(Sc3ccncc3)cc2)CCOCC1` [Example 104, Tetrahydro-N-hydroxy-4-[[4-(4-pyridinylthio)phenyl]sulfonyl]-2H-pyran-4-carboxamide, monohydrochloride] yielded a t1/2 of 0.66 h.
In the case of `O=C(NO)C1(S(=O)(=O)c2ccc(Oc3ccccc3)cc2)CCSCC1` [Example 109], the t1/2 is reported as 1.12 h.
Work on `O=C(NO)C1(S(=O)(=O)c2ccc(Oc3ccccc3)cc2)CC[S+]([O-])CC1` (stereo not drawn) [Example 111] yielded a t1/2 of 0.65 h.
`Nc1ccc(Sc2ccc(S(=O)(=O)C3(C(=O)NO)CCSCC3)cc2)cc1` [Example 115, tetrahydro-N-hydroxy-4-[[4-[4-aminophenyl)thiophenoxy]phenyl]sulfonyl 2H-thionyran-4-carboxamide] gave a t1/2 of 1.36 h.
Work on `O=C(O)CNc1ccc(Oc2ccc(S(=O)(=O)C3(C(=O)NO)CCSCC3)cc2)cc1` [Example 117, tetrahydro-N-hydroxy-4-[[4-[4-hydroxyphenylglycine)]phenyl]sulfonyl 2H-thionyran-4-carboxamide] yielded a t1/2 of 0.78 h.
Molecule `NCC(=O)Nc1ccc(Sc2ccc(S(=O)(=O)C3(C(=O)NO)CCSCC3)cc2)cc1` [Example 118] has a t1/2 of 1.85 h.
Molecule `CC(C)c1ccc(Oc2ccc(S(=O)(=O)C3(C(=O)NO)CCOCC3)cc2)cc1` [Example 125, tetrahydro-N-hydroxy-4-[[4-[4-(1-methylethyl)phenoxy]phenyl]-sulfonyl]-2H-pyran-4-carboxamide] has a t1/2 of 0.73 h.
For `O=C(NO)C1(S(=O)(=O)c2ccc(Oc3ccc(SC(F)(F)F)cc3)cc2)CCOCC1` [Example 382, Tetrahydro-N-hydroxy-4-[[4-[4-[(trifluoromethyl)thio]phenoxy]phenyl]-sulfonyl]-2H-pyran-4-carboxamide], the t1/2 was 1.71 h.
With `O=C(NO)C1(S(=O)(=O)c2ccc(Oc3ccc(C(F)(F)F)cc3)cc2)CCN(CCN2CCOCC2)CC1` [Example 388, N-hydroxy-1-[2-(4-morpholinyl)-ethyl]-4-[(4-(4-(trifluoromethyl)phenoxy]-phenyl]sulfonyl]-4-piperidinecarboxamide, dihydrochloride] the t1/2 was 0.94 h.
Work on `O=C(NO)C1(S(=O)(=O)c2ccc(Oc3ccc(C(F)(F)F)cc3)cc2)CCN(Cc2cccnc2)CC1` [Example 390, N-hydroxy-1-(3-pyridinylmethyl)-4-[[4-(4-trifluoromethyl)phenoxy]phenyl]-sulfonyl]-4-piperidinecarboxamide, dihydrochloride] yielded a t1/2 of 1.50 h.
With `O=C(NO)C1(S(=O)(=O)c2ccc(Oc3ccc(C(F)(F)F)cc3)cc2)CCN(Cc2ccccn2)CC1` [Example 391, N-hydroxy-1-(2-pyridinylmethyl)-4-[[4-[4-(trifluoromethyl)phenoxy]phenyl]-sulfonyl]-4-piperidinecarboxamide, dihydrochloride] the t1/2 was 1.45 h.
In the case of `Cl.O=C(NO)C1(S(=O)(=O)c2ccc(Oc3ccc4c(c3)OCCO4)cc2)CCN(C2CC2)CC1` [Example 408, 1-cyclopropyl-4-[[4-[(2,3-dihydro-1,4-benzodioxin-6-yl)oxy]phenyl]-sulfonyl]-N-hydroxy-4-piperidine-carboxamide, monohydrochloride], the t1/2 is reported as 3.30 h.
`Cl.O=C(NO)C1(S(=O)(=O)c2ccc(Oc3ccc(OC(F)(F)F)cc3)cc2)CCNCC1` [Example 410, N-hydroxy-4-[[4-[(trifluoromethoxy)phenoxy]phenyl]sulfonyl]-4-piperidinecarboxamide, monohydrochloride] gave a t1/2 of 1.78 h.
`C#CCN1CCC(C(=O)NO)(S(=O)(=O)c2ccc(Oc3ccc(C(C)C)cc3)cc2)CC1.Cl` [Example 414, N-hydroxy-4-[[4-[4-(1-methylethyl)phenoxy]phenyl]sulfonyl]-1-(2-propynyl)-4-piperidinecarboxamide, monohdyrochloride] gave a t1/2 of 0.73 h.
`COCCN1CCC(C(=O)NO)(S(=O)(=O)c2ccc(Oc3ccc(OC(F)(F)F)cc3)cc2)CC1.Cl` [Example 416, N-hydroxy-1-(2-methoxyethyl)-4-[[4-[4-(trifluoro-methoxy)phenoxy]phenyl]sulfonyl}-4-piperidinecarboxamide, monohydrochloride] showed a t1/2 of 2.94 h.

Same assay, conditions: Rat Oral, 20 mpk, 6 hr
In the case of `Cl.O=C(NO)C1(S(=O)(=O)c2ccc(Oc3ccc(-n4cncn4)cc3)cc2)CCS(=O)(=O)CC1` [Example 53, Tetrahydro-N-hydroxy-4-[[4-[4-(1H-1,2,4-triazol-1-yl)phenoxy]-phenyl]-sulfonyl]-2H-thiopyran-4-carboxamide 1,1-dioxide, monohydrochloride], the “Blood Level @ 6 hr” value is reported as “BLD”.
